How the values were obtained:
[1] = tested on: human umbilical arterial endothelial cells (HUAEC); assay: cGMP expression by colorimetric ELISA in HUAEC; assay type: cell-based; settings: 24 hours; for cGMP expression, change vs control: agent alone, IBMX 0.4 mM; for cGMP expression, change vs control / reduction of cGMP expression compared to COMP-4 incubation alone: L-NIL 2 μM; for reduction of cGMP expression compared to COMP-4 incubation alone: inhibitor co-incubated with COMP-4 0.69 mg/ml
Experimental: Cells were then scraped, homogenized by pipetting, and centrifuged at 1,000 g for 10 minutes. […] The enzymatic reaction product was determined by spectrophotometry at 405 nm absorbance and expressed as pmol/mg protein.

[2] = tested on: human umbilical arterial endothelial cells (HUAEC); assay: Intracellular NO by Muse Nitric Oxide Kit (DAX-J2 Orange); assay type: cell-based; settings: L-NAME added to COMP-4, 24 hours
Experimental: To corroborate the results obtained by flow cytometry, another system for detecting intracellular NO was used, the Muse® Nitric Oxide Kit (cat #MCH100112, Luminex, Austin, TX). HUAEC were seeded at 1.0×10^6 cells/ml in T25 flasks, treated with vehicle, COMP-4 with or without L-NAME, or LPS (positive control), and incubated for 24 hours. Cells were then suspended in assay buffer at 10^6 cells/ml. 100 μL of working solution consisting of the Muse Nitric Oxide Reagent (DAX-J2 Orange) was added to 10 μL of cells in suspension. Samples were incubated for 30 minutes in a 37° C. incubator with 5% CO2. After the incubation, 90 μL of the Muse 7-AAD working solution (dead cell marker) was added to each tube and incubated at room temperature for 5 min, protected from light. Intracellular NO was measured using the Guava® Muse Cell Analyzer, calibrated with negative and positive controls. Generated plots were divided into quadrants of nitric oxide positivity (+or −) and dead cells (+or −). From each plot, the lower-right quadrant of nitric oxide (+) and dead cell marker (−) was used to express intracellular NO results as the percent positive NO in live cells, which was compared between different treatments.

| Structure (SMILES) | cGMP expression, change vs control [1] | reduction of cGMP expression compared to COMP-4 incubation alone ([1]; L-NAME 3 μM) [%] | reduction of cGMP expression ([1]; inhibitor alone, L-NAME 3 μM, vs control) [%] | reduction of DAX-J2 Orange live cells compared to COMP-4 alone [2] [%] |
| --- | --- | --- | --- | --- |
| CC(=N)NCCCC[C@H](N)C(=O)O.Cl [L-NIL, N^6-(1-Iminoethyl)-lysine, hydrochloride] | no inhibition of cGMP expression | 44 | – | – |
| COC(=O)[C@@H](N)CCCNC(=N)N[N+](=O)[O-] [L-NAME, L-N^G-Nitro arginine methyl ester] | – | 57 | 40 | 46 |
| CC(C)Cn1c(=O)n(C)c(=O)c2[nH]cnc21 [IBMX, 3-isobutyl-1-methylxanthine] | increase in cGMP expression | – | – | – |

— patent US20240398889A1, “NUTRACEUTICAL COMPOSITION AND METHOD FOR THE PROTECTION OF HUMAN ARTERIAL ENDOTHELIAL CELLS FROM ENDOTHELIAL CELL DYSFUNCTION” (K.L.R.M., LLC, priority 2022, published 2024)
